Laboratory results taken from US9957268B2, “1H-pyrrolo[2,3,c]pyridin-7(6H)-ones and pyrazolo[3,4-c]pyridin-7(6H)-ones as inhibitors of BET proteins” (Incyte Corporation, priority 2014, dated 2018).

Tests used:
[1] = molecular target: BRD4-BD2 (Homo sapiens (Human), UniProt O60885); experiment: BRD4 AlphaScreen assay (BRD4-BD2); assay type: binding; conditions: biotin-labeled tetra-acetylated histone H4 peptide
Procedure: (§1) BRD4-BD1 and BRD4-BD2 assays were conducted in white 384-well polystyrene plate in a final volume of 40 μL for BD1 and 60 μL for BD2. Inhibitors were first serially diluted in DMSO and added to the plate wells before the addition of other reaction components. The final concentration of DMSO in the assay was 1.25% (BD1) and 0.83% (BD2). The assays were carried out at room temperature in the assay buffer (50 mM Tris-HCl, pH 7.5, 0.01% Tween-20, 0.01% BSA, 5 mM DTT), containing 50 nM Biotin-labeled tetra-acetylated histone H4 peptide (H4Ac4) and BRD4-BD1 or BRD4-BD2 protein at concentration less than 1 nM. The incubation for 75 min. was followed by the addition of 20 μL of assay buffer supplemented with Streptavidin donor beads (PerkinElmer 6760002) and GSH Acceptor beads (PerkinElmer-AL109C) at final concentration 2-4 μg/mL under reduced light. After plate sealing, the plate was incubated in the dark at room temperature for 75 min. before reading on a PHERAstar FS plate reader (BMG Labtech). IC50 determination was performed by fitting the curve of percent control activity versus the log of the inhibitor concentration using the GraphPad Prism 5.0 software.

[2] = molecular target: BRD4-BD1 (Homo sapiens (Human), UniProt O60885); experiment: BRD4 AlphaScreen assay (BRD4-BD1); assay type: binding; conditions: biotin-labeled tetra-acetylated histone H4 peptide
Procedure: as §1

| SMILES | IC50 [1] [nM] | IC50 [2] [nM] |
| --- | --- | --- |
| CC(O)c1cc(-c2cn(C)c(=O)c3[nH]ccc23)c2c(c1)N(C)C(=O)C(C)(C)O2 (single isomer, unassigned) [Example 83B, 6-(1-hydroxyethyl)-2,2,4-trimethyl-8-(6-methyl-7-oxo-6,7-dihydro-1H-pyrrolo[2,3-c]pyridin-4-yl)-2H-1,4-benzoxazin-3(4H)-one] | ≤ 100 | ≤ 100 |
| COc1cc2c(c(-c3cn(C)c(=O)c4[nH]ccc34)c1)OC(C1CCCC1)C(=O)N2 (single isomer, unassigned) [Example 35B, 2-Cyclopentyl-6-methoxy-8-(6-methyl-7-oxo-6,7-dihydro-1H-pyrrolo[2,3-c]pyridin-4-yl)-2H-1,4-benzoxazin-3(4H)-one] | ≤ 100 | ≤ 100 |
| CNC(=O)c1cc2c(c(-c3cn(C)c(=O)c4[nH]ccc34)c1)OC(C(C)C)C(=O)N2 (stereo not shown) [Example 20, 2-isopropyl-N-methyl-8-(6-methyl-7-oxo-6,7-dihydro-1H-pyrrolo[2,3-c]pyridin-4-yl)-3-oxo-3,4-dihydro-2H-1,4-benzoxazine-6-carboxamide] | ≤ 100 | ≤ 100 |
| Cn1cc(-c2cc(S(=O)(=O)N3CCCCC3)cc3c2OC(C)(C)C(=O)N3)c2cc[nH]c2c1=O [Example 72, 2,2-dimethyl-8-(6-methyl-7-oxo-6,7-dihydro-1H-pyrrolo[2,3-c]pyridin-4-yl)-6-(piperidin-1-ylsulfonyl)-2H-1,4-benzoxazin-3(4H)-one] | ≤ 100 | ≤ 100 |
| CCS(=O)(=O)c1cc(-c2cn(C)c(=O)c3[nH]ccc23)c2c(c1)N(C)C(=O)C(C)(C)O2 [Example 76, 6-(ethylsulfonyl)-2,2,4-trimethyl-8-(6-methyl-7-oxo-6,7-dihydro-1H-pyrrolo[2,3-c]pyridin-4-yl)-2H-1,4-benzoxazin-3(4H)-one] | ≤ 100 | ≤ 100 |
| COc1cc(-c2cn(C)c(=O)c3[nH]ccc23)c2c(c1)N(CC(=O)N1CCN(C)CC1)C(=O)C(C(C)C)O2 (stereo not shown) [Example 14, 2-isopropyl-6-methoxy-8-(6-methyl-7-oxo-6,7-dihydro-1H-pyrrolo[2,3-c]pyridin-4-yl)-4-[2-(4-methylpiperazin-1-yl)-2-oxoethyl]-2H-1,4-benzoxazin-3(4H)-one] | ≤ 100 | 100 to 1000 |
| CC1Oc2c(cccc2-c2cn(C)c(=O)c3[nH]ccc23)NC1=O (stereo not shown) [Example 3, 2-methyl-8-(6-methyl-7-oxo-6,7-dihydro-1H-pyrrolo[2,3-c]pyridin-4-yl)-2H-1,4-benzoxazin-3(4H)-one] | ≤ 100 | 100 to 1000 |
| COc1cc(-c2cn(C)c(=O)c3[nH]ccc23)c2c(c1)N(C)C(=O)C(C(C)C)O2 (stereo not shown) [Example 10, 2-isopropyl-6-methoxy-4-methyl-8-(6-methyl-7-oxo-6,7-dihydro-1H-pyrrolo[2,3-c]pyridin-4-yl)-2H-1,4-benzoxazin-3(4H)-one] | ≤ 100 | ≤ 100 |
| COc1cc(-c2cn(C)c(=O)c3[nH]ccc23)c2c(c1)N(Cc1ccncc1)C(=O)C(C(C)C)O2 (stereo not shown) [Example 15, 2-isopropyl-6-methoxy-8-(6-methyl-7-oxo-6,7-dihydro-1H-pyrrolo[2,3-c]pyridin-4-yl)-4-(pyridin-4-ylmethyl)-2H-1,4-benzoxazin-3(4H)-one] | ≤ 100 | ≤ 100 |
| CC(C)C1Oc2c(cc(-c3ccco3)cc2-c2cn(C)c(=O)c3[nH]ccc23)NC1=O (stereo not shown) [Example 43, 6-(2-furyl)-2-isopropyl-8-(6-methyl-7-oxo-6,7-dihydro-1H-pyrrolo[2,3-c]pyridin-4-yl)-2H-1,4-benzoxazin-3(4H)-one] | ≤ 100 | 100 to 1000 |
| Cn1cc(-c2cc(S(C)(=O)=O)cc3c2NC(C)(C)C(=O)N3)c2cc[nH]c2c1=O [Example 58, 3,3-dimethyl-5-(6-methyl-7-oxo-6,7-dihydro-1H-pyrrolo[2,3-c]pyridin-4-yl)-7-(methylsulfonyl)-3,4-dihydroquinoxalin-2(1H)-one] | ≤ 100 | ≤ 100 |
